Experimental data as given in US20220332764A1, “T CELL EPITOPES OF HCMV AND USES OF THEREOF” (EBERHARD KARLS UNIVERSITÄT TÜBINGEN, priority 2019, published 2022).
Read-outs that look alike come from different tables or passages of the source.

Key:
[1] = test system: CD8+ / CD4+ T cells of donor PBMCs; test: Intracellular cytokine staining (ICS; IFNγ, TNFα, CD107a); type: cell-based, human; settings: for Intracellular staining: responding T-cell subset; for Intracellular cytokine staining: responding T-cell subset after peptide stimulation
From the text: PHA was used as positive control. […] (Cytofix/Cytoperm, BD Biosciences).

[2] = test system: CD8+ T cells of HLA-matched healthy donors; settings: for Tetramer-staining: after 12 day amplification
[3] = test system: PBMCs of healthy HCMV-seropositive donors; test: ex vivo IFNγ ELISpot without prestimulation; type: cell-based, human; settings: for % Positive donors (ex vivo): IFNγ ELISpot ex vivo, donors previously tested positive; for ELISpot response rate (ex vivo): donors positively tested in ELISpots with 12d stimulation
From the text: (§1) PHA was used as positive control.

[4] = test system: PBMCs of healthy HCMV-seropositive donors; test: IFNγ ELISpot after 12 day stimulation (memory T-cell response); type: cell-based, human; settings: for % Positive donors (after 12 days of stimulation): IFNγ ELISpot, HLA-matched seropositive donors; for ELISpot response rate (12 d stim.): 12-day amplification with IL-2 in vitro; for Positive donors as tested: positive / tested HLA-matched seropositive donors, positive: >10 spots/well and at least 3-fold negative control
From the text: as §1

| Sequence | Intracellular cytokine staining [1] | Tetramer-staining [2] | % Positive donors (ex vivo) [3] [%] | % Positive donors (after 12 days of stimulation) [4] [%] | Positive donors as tested [4] | also measured |
| --- | --- | --- | --- | --- | --- | --- |
| GLYTQPRWK (listed as Human cytomegalovirus) [SEQ ID NO: 67] | CD8 | Positive | 50.0 | 76.2 | 16/21 | Intracellular staining ([1]; Tested HLA A*03:01): CD8; Tetramer staining ([2]; Tested HLA A*03:01): positive; ELISpot response rate (ex vivo) ([3]; Tested HLA A*03:01): 50.0; ELISpot response rate (12 d stim.) ([4]; Tested HLA A*03:01): 76.2 |
| YLVRRPMTI (listed as Human cytomegalovirus) [SEQ ID NO: 80] | Nega- | Positive | 33.3 | 50.0 | 11/22 | Tetramer staining ([2]; Tested HLA B*08:01): positive; ELISpot response rate (ex vivo) ([3]; Tested HLA B*08:01): 33.3; ELISpot response rate (12 d stim.) ([4]; Tested HLA B*08:01): 50.0 |
| TPRVTGGGAM (listed as Human cytomegalovirus) [SEQ ID NO: 25] | CD8 | Positive | 100.0 | 81.6 | 31/38 | Intracellular staining ([1]; Tested HLA B*07:02): CD8; Tetramer staining ([2]; Tested HLA B*07:02): positive; ELISpot response rate (ex vivo) ([3]; Tested HLA B*07:02): 100.0; ELISpot response rate (12 d stim.) ([4]; Tested HLA B*07:02): 81.6 |
| GVLDAVWRV (listed as Human cytomegalovirus) [SEQ ID NO: 1] | CD8 | Positive | 50.0 | 72.2 | 13/18 | Intracellular staining ([1]; Tested HLA A*02:01): CD8; Tetramer staining ([2]; Tested HLA A*02:01): positive; ELISpot response rate (ex vivo) ([3]; Tested HLA A*02:01): 50.0; ELISpot response rate (12 d stim.) ([4]; Tested HLA A*02:01): 72.2 |
| SESEFIVRY (listed as Human cytomegalovirus) [SEQ ID NO: 43] | CD8 | Positive | 37.5 | 40.0 | 8/20 | – |
| TLIVNLVEV (listed as Human cytomegalovirus) [SEQ ID NO: 3] | CD8 | Positive | 25.0 | 55.0 | 11/20 | Intracellular staining ([1]; Tested HLA A*02:01): CD8; Tetramer staining ([2]; Tested HLA A*02:01): positive; ELISpot response rate (ex vivo) ([3]; Tested HLA A*02:01): 25.0; ELISpot response rate (12 d stim.) ([4]; Tested HLA A*02:01): 55.0 |
| RTDPATLTAY (listed as Human cytomegalovirus) [SEQ ID NO: 53] | CD8 | Positive | 66.7 | 82.6 | 19/23 | Intracellular staining ([1]; Tested HLA A*01:01): CD8; Tetramer staining ([2]; Tested HLA A*01:01): positive; ELISpot response rate (ex vivo) ([3]; Tested HLA A*01:01): 66.7; ELISpot response rate (12 d stim.) ([4]; Tested HLA A*01:01): 82.6 |
| HETGVYQMW (listed as Human cytomegalovirus) [SEQ ID NO: 41] | CD8 | Positive | 62.5 | 65.4 | 17/26 | Intracellular staining ([1]; Tested HLA B*44:02): CD8; Tetramer staining ([2]; Tested HLA B*44:02): positive; ELISpot response rate (ex vivo) ([3]; Tested HLA B*44:02): 62.5; ELISpot response rate (12 d stim.) ([4]; Tested HLA B*44:02): 65.4 |
| YPRPPGSGL (listed as Human cytomegalovirus) [SEQ ID NO: 24] | Nega- | Positive | 25.0 | 86.4 | 19/22 | Tetramer staining ([2]; Tested HLA B*07:02): positive; ELISpot response rate (ex vivo) ([3]; Tested HLA B*07:02): 25.0; ELISpot response rate (12 d stim.) ([4]; Tested HLA B*07:02): 86.4 |
